# From patent US4683331A, “Omega-(2,4-dihalobiphenylyl) oxo alkanoic acids” (Spofa spojene podniky pro zdravotnickou, priority 1984, dated 1987)
# Legend:
# Carrageenin edema [1] = conditions: J. Pharm. Sci. Vol. 66 (1977); cited from earlier work
# adjuvant arthritis = conditions: J. Pharm. Sci. Vol. 66 (1977); cited from earlier work
# Carrageenin edema [2] = experiment: Carrageenin edema; type: in vivo; conditions: single dose
# Description: (§1) Anti-inflammatory activity is measured according to
# (§2) Carrageenin edema and Freund adjuvans edema. The assay for
# Carrageenin edema was performed according to J. Winter, Proc.
# Soc. Exptl. Biol. Med. Vol. 111 (1962), p 544. Single oral doses
# Edema size was evaluated 1, 24, and 48
# (§3) hours after administration of each compound. The assay for Free
# (§4) after administration of each compound. All of the tabulated
# (§5) values are statistically significant (p < 0.05) except for those
# in vivo = conditions: acute (short-term) toxicity
# Freund adjuvans edema = experiment: Freund adjuvans edema; type: in vivo; conditions: single dose
# Description: as §1, §2, §3
# adjuvans edema was performed according to Z. Horakova and J.
# Grimova, Ceskosl. Fys. Vol. 17 (1968), p. 137. Single oral doses
# The edema was evaluated 1, and 24 hours
# as §4, §5
# [3] = 25 mg/kg po, bracketed values not significant
# [4] = 10 mg/kg po, bracketed values not significant
# [5] = 100 mg/kg po, bracketed values not significant
SMILES,activity for Carrageenin edema (Carrageenin edema [1]),percent inhibition for adjuvant arthritis (adjuvant arthritis),activity for adjuvant arthritis (in words) (adjuvant arthritis),Carrageenin % inhibition 1 hr (Carrageenin edema [2]; [3]),Carrageenin % inhibition 24 hr (Carrageenin edema [2]; [3]),Carrageenin % inhibition 48 hr (Carrageenin edema [2]; 25 mg/kg po),Carrageenin % inhibition 1 hr (Carrageenin edema [2]; 100 mg/kg po),Carrageenin % inhibition 24 hr (Carrageenin edema [2]; 100 mg/kg po),Carrageenin % inhibition 48 hr (Carrageenin edema [2]; 100 mg/kg po),LD50 (in vivo),Adjuvans % inhibition 1 hr (Freund adjuvans edema; 10 mg/kg po),Adjuvans % inhibition 24 hr (Freund adjuvans edema; [4]),Adjuvans % inhibition 1 hr (Freund adjuvans edema; 25 mg/kg po),Adjuvans % inhibition 24 hr (Freund adjuvans edema; [3]),Adjuvans % inhibition 1 hr (Freund adjuvans edema; 100 mg/kg po),Adjuvans % inhibition 24 hr (Freund adjuvans edema; [5]),Adjuvans % inhibition 1 hr (Freund adjuvans edema; 50 mg/kg po),Adjuvans % inhibition 24 hr (Freund adjuvans edema; 50 mg/kg po),Adjuvans % inhibition 1 hr (Freund adjuvans edema; 20 mg/kg po),Adjuvans % inhibition 24 hr (Freund adjuvans edema; 20 mg/kg po)
O=C(O)CCC(=O)c1ccc(-c2ccc(Cl)cc2)cc1 [4'-Cl-fenbufen],no activity,61%,–,–,–,–,–,–,–,–,–,–,–,–,–,–,–,–,–,–
O=C(O)CCC(=O)c1ccc(-c2ccc(F)cc2)cc1 [4'-F-fenbufen],1.7,–,no activity,–,–,–,–,–,–,–,–,–,–,–,–,–,–,–,–,–
CC(CC(=O)c1ccc(-c2ccc(Cl)cc2Cl)cc1)C(=O)O (stereo not drawn) [Compound 1],–,–,–,27%,54%,58%,35%,73%,58%,450 mg/kg,37%,38%,40%,46%,45%,55%,–,–,–,–
CC(CC(=O)c1ccc(-c2ccc(F)cc2F)cc1)C(=O)O (stereo not drawn) [Compound 2],–,–,–,30%,61%,42%,44%,66%,45%,500 mg/kg,–,–,56%,32%,–,–,53%,46%,–,–
CC(CC(=O)c1ccc(-c2ccc(F)cc2)cc1)C(=O)O (stereo not drawn) [Compound 3],–,–,–,16%,21%,–,33%,34%,–,500 mg/kg,37%,31%,–,–,–,–,–,–,42%,39%
O=C(O)CCC(=O)c1ccc(-c2ccccc2)cc1 [Compound 4],–,–,–,40%,14%,–,46%,38%,0%,–,27%,8%,31%,9%,54%,7%,–,–,–,–
